{"source": "ChEMBL document CHEMBL1641416", "about": "“2-Arylbenzoxazoles as CETP inhibitors: raising HDL-C in cynoCETP transgenic mice” (Bioorg Med Chem Lett, 2011)", "key": {"[1]": {"assay": "in vivo", "conditions": "mouse", "description": "Half life in wild type mouse"}, "[2]": {"assay": "in vivo", "conditions": "mouse, po", "description": "Oral bioavailability in wild type mouse"}, "[3]": {"assay": "in vivo", "conditions": "mouse", "remark": "listed apart in the source", "description": "Clearance in wild type mouse"}}}
{"smiles": "Cc1cc(C#N)cc2nc(-c3ccc(NC(=O)CN4CCN(c5ccc(C(F)(F)F)cc5)CC4)cc3)oc12", "values": [{"measurement": "half-life", "setting": "[1]", "value": 4.1, "unit": "h"}, {"measurement": "bioavailability", "setting": "[2]", "value": 56, "unit": "%"}, {"measurement": "clearance", "setting": "[3]", "value": 25, "unit": "mL/min/kg"}]}
